Results reported in ChEMBL document CHEMBL1201862, “PubChem BioAssay data set” (2004).
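Dose response: 5 concentrations. Exposure: 48 h. Format: 96-well plates. Endpoint: linear interpolation; highest concentration if not reached. Abbreviation: GI50, concentration required for 50% inhibition of growth.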 Activity calls are given as the source filed them. Cut-off read from the data, not from the text of the source: active = GI50 up to about 1.1 µM and inactive = higher.

How the values were obtained:
Experiment in all cases: growth of human tumour cells (NCI), 48 h
CCRF-CEM = system: CCRF-CEM
SK-MEL-2 = system: SK-MEL-2
K562 = system: K562
UACC-62 = system: UACC-62
SN12C = system: SN12C
SK-MEL-5 = system: SK-MEL-5
HCC 2998 = system: HCC 2998
NCI-H522 = system: NCI-H522
MCF7 = system: MCF7
HL-60 = system: HL-60
SF-268 = system: SF-268
OVCAR-4 = system: OVCAR-4
A549 = system: A549
HOP-62 = system: HOP-62
UO-31 = system: UO-31
MOLT-4 = system: MOLT-4
COLO 205 = system: COLO 205
IGROV-1 = system: IGROV-1
SF-295 = system: SF-295
UACC-257 = system: UACC-257

SMILES | GI50 (CCRF-CEM) | GI50 (SK-MEL-2) | GI50 (K562) | GI50 (UACC-62) | GI50 (SN12C) | GI50 (SK-MEL-5) | GI50 (HCC 2998) | GI50 (NCI-H522) | GI50 (MCF7) | GI50 (HL-60) | GI50 (SF-268) | GI50 (OVCAR-4) | GI50 (A549) | GI50 (HOP-62) | GI50 (UO-31) | GI50 (MOLT-4) | GI50 (COLO 205) | GI50 (IGROV-1) | GI50 (SF-295) | GI50 (UACC-257)
CCN(CC)CCOCCOCC1(c2ccc(Cl)c(Cl)c2)CCCCC1 | 2.99 µM (inactive) | 14.9 µM (inactive) | 2.82 µM (inactive) | 8.87 µM (inactive) | 11.9 µM (inactive) | 2.19 µM (inactive) | 4.07 µM (inactive) | 7.91 µM (inactive) | 6.34 µM (inactive) | 5.82 µM (inactive) | 11.8 µM (inactive) | 12.6 µM (inactive) | 10.9 µM (inactive) | 7.67 µM (inactive) | 5.12 µM (inactive) | 4.99 µM (inactive) | 4.41 µM (inactive) | 8.43 µM (inactive) | 5.83 µM (inactive) | 2.88 µM (inactive)
CO/N=C/c1c(-c2ccc(Cl)cc2)c(/C=N/OC)n2c1sc1ccccc12 | 70.1 µM (inactive) | > 100 µM (inactive) | > 100 µM (inactive) | > 100 µM (inactive) | > 100 µM (inactive) | > 100 µM (inactive) | > 100 µM (inactive) | > 100 µM (inactive) | > 100 µM (inactive) | 32 µM (inactive) | > 100 µM (inactive) | 83 µM (inactive) | > 100 µM (inactive) | > 100 µM (inactive) | > 100 µM (inactive) | 45.5 µM (inactive) | > 100 µM (inactive) | > 100 µM (inactive) | > 100 µM (inactive) | > 100 µM (inactive)
O=C(Nc1cccc(F)c1)c1cc2ccc(O)cc2o/c1=N\c1ccccc1F | 2.47 µM (inactive) | 4.8 µM (inactive) | 2.01 µM (inactive) | 4.38 µM (inactive) | 5.26 µM (inactive) | 2.2 µM (inactive) | 9.59 µM (inactive) | 2.09 µM (inactive) | 3.33 µM (inactive) | 2.45 µM (inactive) | 2.74 µM (inactive) | 3.56 µM (inactive) | 3.38 µM (inactive) | 8.89 µM (inactive) | 4 µM (inactive) | 2.29 µM (inactive) | 21.1 µM (inactive) | 2.96 µM (inactive) | 8.39 µM (inactive) | 4.33 µM (inactive)
COc1ccc2c(=O)c(-c3cc(OC)c(OC)cc3OC)coc2c1 | 1.56 µM (inactive) | 2.27 µM (inactive) | 1.11 µM (active) | 1.97 µM (inactive) | 13.3 µM (inactive) | 1.55 µM (inactive) | 2.94 µM (inactive) | 1.28 µM (inactive) | 0.778 µM (active) | 0.735 µM (active) | 4.73 µM (inactive) | > 100 µM (inactive) | 5.41 µM (inactive) | 3.72 µM (inactive) | 34 µM (inactive) | 2 µM (inactive) | 3.32 µM (inactive) | 19.2 µM (inactive) | 1.66 µM (inactive) | 11.3 µM (inactive)
NC(CSS(=O)(=O)c1ccccc1)C(=O)O (stereo not given) | > 10 µM (inactive) | > 10 µM (inactive) | > 10 µM (inactive) | > 10 µM (inactive) | > 10 µM (inactive) | > 10 µM (inactive) | > 10 µM (inactive) | > 10 µM (inactive) | > 10 µM (inactive) | > 10 µM (inactive) | > 10 µM (inactive) | > 10 µM (inactive) | > 10 µM (inactive) | > 10 µM (inactive) | > 10 µM (inactive) | > 10 µM (inactive) | > 10 µM (inactive) | > 10 µM (inactive) | > 10 µM (inactive) | > 10 µM (inactive)
COc1ccc2c(c1)c1ccc3c(c1n2C)C(=O)C=CC3=O | 0.455 µM (active) | 17.2 µM (inactive) | 1.22 µM (inactive) | 12.8 µM (inactive) | 8.38 µM (inactive) | 19.3 µM (inactive) | 17.9 µM (inactive) | 3.15 µM (inactive) | 2.45 µM (inactive) | 0.904 µM (active) | 15 µM (inactive) | 8.38 µM (inactive) | 29 µM (inactive) | 35.5 µM (inactive) | 11.4 µM (inactive) | 0.834 µM (active) | 9.75 µM (inactive) | 12.7 µM (inactive) | 24.3 µM (inactive) | 10.9 µM (inactive)
CC(=O)N1c2cc(/N=N/N(C)C)ccc2NC(=O)CC1C (stereo not given) | > 100 µM (inactive) | > 100 µM (inactive) | > 100 µM (inactive) | > 100 µM (inactive) | > 100 µM (inactive) | > 100 µM (inactive) | > 100 µM (inactive) | > 100 µM (inactive) | > 100 µM (inactive) | > 100 µM (inactive) | > 100 µM (inactive) | > 100 µM (inactive) | > 100 µM (inactive) | > 100 µM (inactive) | > 100 µM (inactive) | > 100 µM (inactive) | > 100 µM (inactive) | > 100 µM (inactive) | > 100 µM (inactive) | > 100 µM (inactive)
N=C(N)N/N=C/c1c(-c2cccc([N+](=O)[O-])c2)nc2n1CCS2 | 22.2 µM (inactive) | 17.2 µM (inactive) | 11.2 µM (inactive) | 17.9 µM (inactive) | 22.7 µM (inactive) | 14.8 µM (inactive) | 19.4 µM (inactive) | 16.3 µM (inactive) | 11 µM (inactive) | 19.1 µM (inactive) | 19.6 µM (inactive) | 13.9 µM (inactive) | 18.5 µM (inactive) | 22.4 µM (inactive) | 15.5 µM (inactive) | 11.4 µM (inactive) | 8.32 µM (inactive) | 15.6 µM (inactive) | 26.2 µM (inactive) | 19.1 µM (inactive)
COc1c2c(c(CC=C(C)C)c3oc(=O)c(-c4ccc(O)cc4)c(O)c13)OC(C)(C)C=C2 [LONCHOCARPIC ACID] | 23.7 µM (inactive) | 19.6 µM (inactive) | 29.5 µM (inactive) | 21.2 µM (inactive) | 27.5 µM (inactive) | 12.8 µM (inactive) | 20.8 µM (inactive) | 23 µM (inactive) | 16.8 µM (inactive) | 21.2 µM (inactive) | 14.1 µM (inactive) | 17.7 µM (inactive) | 19.1 µM (inactive) | 23.4 µM (inactive) | 27.8 µM (inactive) | 24.9 µM (inactive) | 23.4 µM (inactive) | 18.4 µM (inactive) | 28.2 µM (inactive) | 27.7 µM (inactive)
N#CC12CC3=C(N=C1NC1=C(CCc4ccccc41)C2)c1ccccc1CC3 (stereo not given) | 0.745 µM (active) | 4.39 µM (inactive) | 0.317 µM (active) | 2.82 µM (inactive) | 5.15 µM (inactive) | 3.74 µM (inactive) | 1.74 µM (inactive) | 1.23 µM (inactive) | 0.594 µM (active) | 0.323 µM (active) | 3.3 µM (inactive) | 7.55 µM (inactive) | 3.32 µM (inactive) | 5.37 µM (inactive) | 3.45 µM (inactive) | 1.72 µM (inactive) | 1.73 µM (inactive) | 1.44 µM (inactive) | 0.984 µM (active) | 17.6 µM (inactive)
CCOC(=O)/C1=C(\C)N(Cc2ccccc2)C(=O)c2ccccc2C(=O)c2c(O)ccc(O)c21 | > 100 µM (inactive) | > 100 µM (inactive) | > 100 µM (inactive) | > 100 µM (inactive) | > 100 µM (inactive) | > 100 µM (inactive) | > 100 µM (inactive) | 24.1 µM (inactive) | < 0.01 µM (active) | > 100 µM (inactive) | > 100 µM (inactive) | > 100 µM (inactive) | > 100 µM (inactive) | > 100 µM (inactive) | > 100 µM (inactive) | > 100 µM (inactive) | > 100 µM (inactive) | 34.7 µM (inactive) | > 100 µM (inactive) | > 100 µM (inactive)
CCOC(=O)c1cc2cc(N(C(C)=O)C(C)=O)ccc2s1 | 21.9 µM (inactive) | 22.5 µM (inactive) | 24.7 µM (inactive) | 31.6 µM (inactive) | 19.7 µM (inactive) | 20.7 µM (inactive) | 35.4 µM (inactive) | 16.8 µM (inactive) | 28.3 µM (inactive) | 13 µM (inactive) | 23.2 µM (inactive) | 31.3 µM (inactive) | 36.1 µM (inactive) | 48.1 µM (inactive) | 27.7 µM (inactive) | 18.6 µM (inactive) | 33.7 µM (inactive) | 38 µM (inactive) | 30.8 µM (inactive) | 40 µM (inactive)
O=S(=O)(N1CCCCN(S(=O)(=O)C(F)(F)F)CCCN(S(=O)(=O)C(F)(F)F)CCCN(S(=O)(=O)C(F)(F)F)CCCCN(S(=O)(=O)C(F)(F)F)CCCN(S(=O)(=O)C(F)(F)F)CCC1)C(F)(F)F | > 100 µM (inactive) | 76.4 µM (inactive) | > 100 µM (inactive) | 64.6 µM (inactive) | 35.8 µM (inactive) | 35 µM (inactive) | > 100 µM (inactive) | 35.2 µM (inactive) | > 100 µM (inactive) | > 100 µM (inactive) | 31.1 µM (inactive) | > 100 µM (inactive) | > 100 µM (inactive) | 29.7 µM (inactive) | > 100 µM (inactive) | > 100 µM (inactive) | > 100 µM (inactive) | 35.6 µM (inactive) | 22.9 µM (inactive) | 49.3 µM (inactive)
Cc1cc(-c2ccccc2)nc2oc(=O)n(C)c12 | > 100 µM (inactive) | 79.3 µM (inactive) | > 100 µM (inactive) | > 100 µM (inactive) | 71.8 µM (inactive) | > 100 µM (inactive) | > 100 µM (inactive) | > 100 µM (inactive) | > 100 µM (inactive) | > 100 µM (inactive) | > 100 µM (inactive) | > 100 µM (inactive) | > 100 µM (inactive) | > 100 µM (inactive) | > 100 µM (inactive) | > 100 µM (inactive) | > 100 µM (inactive) | 53.3 µM (inactive) | 39.5 µM (inactive) | > 100 µM (inactive)
